Data published in US20260176262A1, “KRAS INHIBITORS, PREPARATION METHOD THEREFOR, AND PHARMACEUTICAL USE THEREOF” (ABBISKO THERAPEUTICS CO., LTD., priority 2021, published 2026).
Read-outs that look alike come from different tables or passages of the source.

Tests used:
[1] = target: KRAS^G12D/cRAF (Homo sapiens, UniProt P01116, G12D); test: KRAS G12D/cRAF binding test (Alphalisa); settings: His-tagged KRAS G12D + GMPPNP, GST-tagged cRAF
Procedure: The compound was dissolved in 100% DMSO at a starting concentration of 5 mM and diluted in DMSO with a 3-fold serial dilution method for a total of 8 concentration points. 1 μL of the compound or DMSO at each concentration point was added into 99 μL of the experimental buffer to obtain 10× stock solution.
• 1) 4 μL of the working mixture solution of His-tagged KRAS^G12D and GMPPNP was added to the 384-well plate. • 2) The 10× compound stock solution or 1% DMSO was added to the 384-well plate. • 3) The plate was centrifuged at 1000 rpm for 1 minute. • 4) 4 μL of GST-tagged cRAF solution was added to the 384-well plate. • 5) The plate was centrifuged at 1000 rpm for 1 minute. • 6) The plate was incubated at room temperature for 15 minutes. • 7) 10 μL of detection working solution was added to the 384-well plate. • 8) The plate was centrifuged at 1000 rpm for 1 minute. • 9) The plate was incubated at room temperature for 60 minutes. • 10) The 384-well plate was placed into Envision and assay data was obtained.
(§1) The ratio for each compound concentration was calculated from the signal of the DMSO control group contained in each assay plate and the Alphalisa signal in each compound well. The compound concentration required for inhibitory concentration at 50% (IC50) was determined using a four-parameter logarithmic dose-response equation by testing the concentration of the compound and the value of the ratio. The endpoint value (IC50) of the reference compound was assessed in each experiment as a quality control measure. If the endpoint value is within three times the expected value, the experiment may be considered acceptable.

[2] = system: AGS cell; test: Anti-proliferative 2D CTG assay, AGS cells; type: cell-based; settings: Homo sapiens, 72 h
Procedure: When the cell confluence was about 80%, the cells were isolated with 0.25% trypsin. Isolated cells were resuspended in 5 mL fresh cell culture medium and centrifuged for cell collection. Meanwhile, the number of cells was also calculated. The cells were then suspended in culture medium of medium concentration. The cells were placed into a 96-well plate with 1000 cells/well for AGS and 1000 cells/well for GP2D. The 96-well plate was placed in an incubator at 37° C. and incubated overnight.
1.2 Day 1 Compound Treatment From the 10 mM stock solution, with a ratio of 1:5, 10-point serial dilutions were performed. The 10× medium containing the compound was transferred into corresponding wells of the 96 wells. The final maximum compound concentration was […] and the final DMSO concentration was 0.1%. The 96-well plate was placed in a 37° C. incubator, the AGS cells were incubated for 3 days, and the GP2D cells were incubated for 4 days.
50 μL/well of detection reagent (CTG) was added to the AGS cells, and the signal was read in an Envision machine.
as §1, with “The percent inhibition (%) at” for “The ratio for”, “signal in” for “signal of”, “the HPE and ZPE” for “the DMSO”, “control wells and the fluorescence signal in the individual compound wells included” for “control group contained”, “assay plate. […]” for “assay plate and the Alphalisa signal in each compound well.”, “the inhibition percentage value.” for “the value of the ratio.”

[3] = AGS cells, incubated 3 days, CTG, class symbols, read-out: AGS cell IC50

Sequence of KRAS^G12D/cRAF (P01116 1-188 isoform P01116-2 G12D): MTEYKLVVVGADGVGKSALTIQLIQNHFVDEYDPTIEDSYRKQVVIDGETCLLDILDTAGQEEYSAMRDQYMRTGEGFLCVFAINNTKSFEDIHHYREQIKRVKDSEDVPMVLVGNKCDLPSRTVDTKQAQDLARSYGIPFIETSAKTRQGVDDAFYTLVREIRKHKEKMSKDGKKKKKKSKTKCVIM

Row | SMILES | IC50 [2, 3] [nM] | IC50 ([1]; class symbols) [nM] | also measured
1 | C#Cc1c(F)ccc2cc(O)cc(-c3ncc4c(N5CC6CCC(COC)(C5)N6)nc(OC[C@@]56CCCN5C[C@H](F)C6)nc4c3F)c12 (stereo partly drawn) [Example 1, 5-ethynyl-6-fluoro-4-(8-fluoro-2-(((2R,7aS)-2-fluorotetrahydro-1H-pyrrolizin-7a-yl)methoxy)-4-(1-(methoxymethyl)-3,8-diazabicyclo[3.2.1]octan-3-yl)pyrido[4,3-d]pyrimidin-7-yl)naphthalen-2-ol] |  |  | IC50 ([1]; numeric values): 100 nM; IC50 ([2]; AGS, read-out: AGS cell IC50 (nM)): 20 nM
2 | [2H]C12CCC(COC([2H])([2H])[2H])(CN(c3nc(OC[C@@]45CCCN4C[C@H](F)C5)nc4c(F)c(-c5cc(O)cc6ccc(F)c(C#C)c56)ncc34)C1)N2 (stereo partly drawn) [Example 3, 5-ethynyl-6-fluoro-4-(8-fluoro-2-(((2R,7aS)-2-fluorotetrahydro-1H-pyrrolizin-7a(5H)-yl)methoxy)-4-(1-((methoxy-d3)methyl)-3,8-diazabicyclo [3.2.1]octan-3-yl-5-d)pyrido [4,3-d]pyrimidin-7-yl)naphthalen-2-ol] | < 50 |  | 
3 | C#Cc1c(F)ccc2cc(O)cc(-c3ncc4c(N5CC6CCC(COC(F)F)(C5)N6)nc(OC[C@@]56CCCN5C[C@H](F)C6)nc4c3F)c12 (stereo partly drawn) [Example 4, 4-(4-(1-((difluoromethoxy)methyl)-3,8-diazabicyclo[3.2.1]octan-3-yl)-8-fluoro-2-(((2R,7aS)-2-fluorotetrahydro-1H-pyrrolizin-7a(5H)-yl)methoxy)pyrido[4,3-d]pyrimidin-7-yl)-5-ethynyl-6-fluoronaphthalen-2-ol] | 50 to 500 | 50 to 500 | 
4 | C#Cc1c(F)ccc2cc(O)cc(-c3ncc4c(N5CC6CCC(C#C)(C5)N6)nc(OC[C@@]56CCCN5C[C@H](F)C6)nc4c3F)c12 (stereo partly drawn) [Example 6, 5-ethynyl-4-(4-(1-ethynyl-3,8-diazabicyclo[3.2.1]octan-3-yl)-8-fluoro-2-(((2R,7aS)-2-fluorotetrahydro-1H-pyrrolizin-7a(5H)-yl)methoxy)pyrido[4,3-d]pyrimidin-7-yl)-6-fluoronaphthalen-2-ol] | < 50 | 50 to 500 | 
5 | [2H]C([2H])([2H])C12CCC(CN(c3nc(OC[C@@]45CCCN4C[C@H](F)C5)nc4c(F)c(-c5cc(O)cc6ccc(F)c(C#C)c56)ncc34)C1)N2 (stereo partly drawn) [Example 7, 5-ethynyl-6-fluoro-4-(8-fluoro-2-(((2R,7aS)-2-fluorotetrahydro-1H-pyrrolizin-7a(5H)-yl)methoxy)-4-(1-(methyl-d3)-3,8-diazabicyclo[3.2.1]octan-3-yl)pyrido [4,3-d]pyrimidin-7-yl) naphthalen-2-ol] |  |  | IC50 ([1]; numeric values): 4.3 nM; IC50 ([2]; AGS cells, incubated 3 days, CTG, numeric values, read-out: AGS cell IC50): 28 nM
6 | C#Cc1c(F)ccc2cc(O)cc(-c3ncc4c(N5CC6CCC(CCF)(C5)N6)nc(OC[C@@]56CCCN5C[C@H](F)C6)nc4c3F)c12 (stereo partly drawn) [Example 8, 5-ethynyl-6-fluoro-4-(8-fluoro-4-(1-(2-fluoroethyl)-3,8-diazabicyclo[3.2.1]octan-3-yl)-2-(((2R,7aS)-2-fluorotetrahydro-1H-pyrrolizin-7a(5H)-yl)methoxy)pyrido[4,3-d]pyrimidin-7-yl) naphthalen-2-ol] | < 50 | < 50 | 
7 | C#Cc1c(F)ccc2cc(O)cc(-c3ncc4c(N5CC6CCC(CCOC)(C5)N6)nc(OC[C@@]56CCCN5C[C@H](F)C6)nc4c3F)c12 (stereo partly drawn) [Example 9, 5-ethynyl-6-fluoro-4-(8-fluoro-2-(((2R,7aS)-2-fluorotetrahydro-1H-pyrrolizin-7a(5H)-yl)methoxy)-4-(1-(2-methoxyethyl)-3,8-diazabicyclo[3.2.1]octan-3-yl)pyrido[4,3-d]pyrimidin-7-yl) naphthalen-2-ol] | 50 to 500 | 50 to 500 | 
8 | C#Cc1c(F)ccc2cc(O)cc(-c3ncc4c(N5CC6CCC(CSC)(C5)N6)nc(OC[C@@]56CCCN5C[C@H](F)C6)nc4c3F)c12 (stereo partly drawn) [Example 10, 5-ethynyl-6-fluoro-4-(8-fluoro-2-(((2R,7aS)-2-fluorotetrahydro-1H-pyrrolizin-7a(5H)-yl)methoxy)-4-(1-((methylthio)methyl)-3,8-diazabicyclo [3.2.1]octan-3-yl)pyrido[4,3-d]pyrimidin-7-yl)naphthalen-2-ol] | 50 to 500 | > 500 | 
9 | C#Cc1c(F)ccc2cc(O)cc(-c3ncc4c(N5CC6CCC(CS(C)(=O)=O)(C5)N6)nc(OC[C@@]56CCCN5C[C@H](F)C6)nc4c3F)c12 (stereo partly drawn) [Example 11, 5-ethynyl-6-fluoro-4-(8-fluoro-2-(((2R,7aS)-2-fluorotetrahydro-1H-pyrrolizin-7a(5H)-yl)methoxy)-4-(1-((methanesulfonyl)methyl)-3,8-diazabicyclo[3.2.1]octan-3-yl)pyrido[4,3-d]pyrimidin-7-yl)naphthalen-2-ol] | > 500 | > 500 | 
10 | C#Cc1c(F)ccc2cc(O)cc(-c3ncc4c(N5CC6CCC(C(C)O)(C5)N6)nc(OC[C@@]56CCCN5C[C@H](F)C6)nc4c3F)c12 (stereo partly drawn) [Example 13, 5-ethynyl-6-fluoro-4-(8-fluoro-2-(((2R,7aS)-2-fluorotetrahydro-1H-pyrrolizin-7a(5H)-yl)methoxy)-4-(1-(1-hydroxyethyl)-3,8-diazabicyclo[3.2.1]octan-3-yl)pyrido[4,3-d]pyrimidin-7-yl) naphthalen-2-ol] | 50 to 500 |  | 
11 | [2H]C([2H])([2H])OCC12CCC(CN(c3nc(OC[C@@]45CCCN4C[C@H](F)C5)nc4c(F)c(-c5cc(O)cc6cc(F)c(F)c(C#C)c56)ncc34)C1)N2 (stereo partly drawn) [Example 15, 5-ethynyl-6,7-difluoro-4-(8-fluoro-2-(((2R,7aS)-2-fluorotetrahydro-1H-pyrrolizin-7a(5H)-yl)methoxy)-4-(1-((methoxy-d3)methyl)-3,8-diazabicyclo[3.2.1]octan-3-yl)pyrido[4,3-d]pyrimidin-7-yl)naphthalen-2-ol] | 50 to 500 | 50 to 500 | 
12 | [2H]C([2H])([2H])OCC12CCC(CN(c3nc(OC[C@@]45CCCN4C[C@H](F)C5)nc4c(F)c(-c5cc(O)cc6cc(C)c(F)c(C#C)c56)ncc34)C1)N2 (stereo partly drawn) [Example 17, 5-ethynyl-6-fluoro-4-(8-fluoro-2-(((2R,7aS)-2-fluorotetrahydro-1H-pyrrolizin-7a(5H)-yl)methoxy)-4-(1-((methoxy-d3)methyl)-3,8-diazabicyclo[3.2.1]octan-3-yl)pyrido[4,3-d]pyrimidin-7-yl)-7-methylnaphthalen-2-ol] | > 500 |  | 
13 | C#Cc1c(F)ccc2cc(O)cc(-c3ncc4c(N5C[C@H]6CC[C@@](COC)(C5)N6)nc(OC[C@@]56CCCN5C[C@H](F)C6)nc4c3F)c12 [Example 45, 5-ethynyl-6-fluoro-4-(8-fluoro-2-(((2R,7aS)-2-fluorotetrahydro-1H-pyrrolizin-7a(5H)-yl)methoxy)-4-((1S,5R)-1-(methoxymethyl)-3,8-diazabicyclo[3.2.1]octan-3-yl)pyrido[4,3-d]pyrimidin-7-yl)naphthalen-2-ol] |  | > 500 | 
14 | C#Cc1c(F)ccc2cc(O)cc(-c3ncc4c(N5C[C@@H]6CC[C@](CCF)(C5)N6)nc(OC[C@@]56CCCN5C[C@H](F)C6)nc4c3F)c12 [Example 56, 5-ethynyl-6-fluoro-4-(8-fluoro-4-((1S,5S)-1-(2-fluoroethyl)-3,8-diazabicyclo[3.2.1]octan-3-yl)-2-(((2R,7aS)-2-fluorotetrahydro-1H-pyrrolizin-7a(5H)-yl)methoxy)pyrido[4,3-d]pyrimidin-7-yl)naphthalen-2-ol] | < 50 |  | 
